Test results: patent US10646521B2, “Microbiota composition, as a marker of responsiveness to chemotherapy, and use of microbial modulators (pre-, pro- or synbiotics) for improving the efficacy of a cancer treatment” (INSTITUT GUSTAVE ROUSSY, priority 2013, dated 2020)
“Also recorded” adds a separate entry of the source. Counter-ions that a name gives are not always drawn.

Key:
[1] = tested on: splenic pTh17 cells; assay: Flow cytometry of splenic pTh17 / TH1 / Tc1 cells; conditions: for CTX-mediated pTH17 in the spleen: WT animals treated with NOD agonists
Description: For cross-linking experiment, 2×10^5 total splenocytes per well (after red cell lysis) were incubated in MaxiSorp plates (Nunc) precoated with anti-CD3ε mAb (145-2C11) (0.5 μg per well; eBioscience) and/or anti-CD28 mAb (37.51) (2 μg/ml; BD). The supernatants were assayed at 48 h by ELISA for mouse IL-17A (eBioscience) and IFNγ (BD). […] For intracellular, cells were incubated for 4 h at 37° C. with 50 ng/ml of PMA, 1 μg/ml of ionomycin and BD Golgi STOP™. After membrane staining, cells were stained with anti-IL-17A, IFNγ, T-bet and RORγt using eBioscience FoxP3/Transcription factor staining buffer set.

[2] = tested on: lipocalin-2; assay: ELISA monitoring of lipocalin-2 in feces; assay type: in vivo, mice; conditions: WT animals treated with NOD agonists
Description: A. Enumeration of bacterial colonies in splenocytes 48 hrs post-CTX therapy in various mouse backgrounds. Splenic cells (left panel) and mesenteric LN (middle panel) harvested from C57BL/6 WT or NOD1^−/−×NOD2^−/− mice were cultured in anaerobic conditions for 48 hours. Bacterial outgrowth was enumerated (number of colonies/plate and frequencies of positive plates/animal (right panel)) and eventually characterized by mass spectrometry for bacterial identification. B. Flow cytometric analyses of pTH17 cells. CD4^+ T cells co-expressing IFN[…]γ in the gate of live IL-17+ T splenocytes in WT versus NOD1 or NOD2 deficient mice C. Idem as in B. but experiment performed in WT animals treated with NOD agonists (MDP and TriDAP) according to the experimental setting aligned in the upper part of the graph. D. ELISA monitoring of lipocalin-2 in the feces of mice according to the experimental setting aligned in C. A representative experiment is shown for A and D. Concatenated data from 2-3 individual experiments including 3 mice/group are depicted in B-C. Anova statistical analyses: *p<0.05, **p<0.01, ***p<0.001.

[3] = tested on: splenocytes; assay: TCR cross-linking of splenocytes, IL-17 and IFNγ ELISA; assay type: in vivo, mice
[4] = tested on: commensal bacteria; assay type: in vivo, mice; conditions: 48 h after treatment
Description: Mesenteric lymph nodes and spleens were aseptically removed, smashed in PBS and plated onto COS agar plates (BioMérieux), for aerobic and anaerobic growth. After 48 h of culture, single colonies were isolated and stocked in glycerol at −80° C.
(§1) Serial dilutions of feces from naïve mice or tumor bearers treated with NaCl or CTX, vancomycin or broad spectrum antibiotics (ATB) (ampicillin+streptomycin+colistin), were plated onto COS agar plates and after 48 h, single colonies were isolated and Gram staining was performed. The identification of specific bacteria was accomplished through the combination of morphological tests and the analysis through VITEK® automated system (BioMérieux, France) and verified in mass spectrometry (MALDI-TOF, see below) performed at Pasteur Institute, Paris, France.

[5] = tested on: MCA205 sarcomas; assay type: in vivo, C57BL/6 mice
[6] = tested on: small intestine epithelium; conditions: mouse, in vivo
Description: The whole small intestine (duodenum, jejunum and ileum) was removed, cleaned from fecal content and fixed in 4% of PFA for 1 h. Re-hydration of the tissue was performed in 15% sucrose for 1 h and in 30% sucrose overnight. Depending on the experiment, the small intestine was entirely rolled, or cut into small pieces, then embedded in optimum cutting temperature (OCT) compound (Sakura), snap frozen and longitudinal or transversal […] were prepared.
For histological analyses, the longitudinal sections were counterstained with hematoxilin and eosin. For the histological quantitative analyses, inflammatory foci, altered villi and the thickness of lamina propria were scored for each section, while the number of goblet cells was counted for each villus. […] Then, a rabbit polyclonal antibody against the lysozyme protein (1:500 for 1 h, Thermo Scientific) and ALEXA FLUOR 488 Fragment of goat anti-rabbit IgG (1:300 for 1 h, Molecular Probes) were used. All steps were performed at room temperature. Lysozyme-positive areas were quantified on mosaic images using the Histolab software (Microvision Instruments). The quantification of Paneth cells was performed measuring the average area of the Lysozyme-positive clusters (group of Paneth cells) as well as the emission/μm^2 of those clusters (not shown).

[7] = tested on: lung adenocarcinoma; assay: Lung adenocarcinoma-bearing KP mice treated with chemotherapy
Description: Mice were either left untreated or received chemotherapy (d84, d91 and d98) in absence or presence of 0.25 mg/ml vancomycin (mixed into drinking water starting on d77 and until the end of the experiment; antibiotic-containing water was replaced biweekly). Tumor volumes were quantified on d73 and 100 (equivalent of ‘pre’ and ‘post’ chemotherapy) in anesthetized mice by noninvasive imaging as described before (Cortez-Retamozo et al., 2013).

[8] = tested on: MC38-OVAdim tumor cells; assay: OVA vaccine + CTX, rechallenge with MC38-OVAdim tumor cells; assay type: in vivo, C56BL/6 mice; conditions: antibiotics 20 days, rechallenge at day 50
Description: FIG. 38: Anticancer vaccines combined with CTX promote a long lasting anticancer immunity which depends on gut Gram negative bacteria. A. Experimental setting. C56BL/6 mice were treated with broad spectrum ATB (ampicilline, colistine, streptomycine) or vancomycine (which only kills Gram+ bacteria) or colistine (which only kills Gram− bacteria) for 9 days, received one ip, injection of CTX (100 mg/kg), followed 3 days later by vaccination with OVA protein in CpG adjuvants (or mock vaccines). ATB were stopped after 20 days and animals were left untreated under observation for 1 month. At day 50, all mice were rechallenged with a lethal dose of 10× times the MTD of MC38-OVA^dim tumor cells sc. B. Animals were scored on the basis of tumor outgrowth (featuring no or weak memory T cell response). The percentages of tumor-free mice was recorded for 2 experiments comprising 5 mice/group.*Anova test: p<0.05.

[9] = tested on: tumor-infiltrating lymphocytes; assay: Flow cytometry of tumor-infiltrating lymphocytes; assay type: in vivo, mice
[10] = tested on: fecal commensal bacteria; assay: Culture of fecal commensals under antibiotics; assay type: in vivo, mice; conditions: antibiotic in drinking water, tumor bearers
Description: Mice were treated with antibiotics 2-3 weeks before tumor implantation and continued until the end of the experiment. A mix of ampicillin (1 mg/ml)+streptomycin (5 mg/ml)+colistin (1 mg/ml) (Sigma-Aldrich) or vancomycin (0.25 mg/ml) or colistin alone (2·10^3 U/ml) were added in sterile drinking water. Solutions and bottles were changed 2-3 times a week.
as §1

Molecule: CC(=O)N[C@H]1C(O)O[C@H](CO)[C@@H](O)[C@@H]1O[C@H](C)C(=O)N[C@@H](C)C(=O)N[C@H](CCC(=O)O)C(N)=O (mixture of isomers) [myramyl dipeptide]
- CTX-mediated pTH17 in the spleen [1]: reducing
- release of the antimicrobial peptide lipocalin-2 in stools [2]: promoting the release

Molecule: C[C@H](N)C(=O)N[C@H](CCC(=O)NC(CCCC(N)C(=O)O)C(=O)O)C(=O)O (some centres unmarked) [TriDAP]
- CTX-mediated pTH17 in the spleen [1]: reducing
- release of the antimicrobial peptide lipocalin-2 in stools [2]: promoting the release

Molecule: COc1cccc2c1C(=O)c1c(O)c3c(c(O)c1C2=O)C[C@@](O)(C(=O)CO)C[C@@H]3O[C@H]1C[C@H](N)[C@H](O)[C@H](C)O1 [doxorubicin, Doxorubicin hydrochloride]
- polarization of splenic CD4+ T cells towards Th1 and Th17 pattern ([3]; day 7 after treatment): not found
- translocation of commensal bacteria into mesenteric lymph nodes and spleens, compared with CTX [4]: less so
- induction of pTh17 cells in the spleen ([1]; Doxo i.p., splenocytes 7 days later): failed to induce pTh17 cells in the spleen
- dependence of tumor growth reduction on gut commensals ([5]; SPF, ATB-treated and germ-free mice): does not require gut commensals for reducing tumor growth
- inflammatory status of the gut epithelial barrier (histology) [6]: shortening of small intestinal villi, discontinuities of the epithelial barrier, interstitial edema and focal accumulation of mononuclear cells in the lamina propria

Molecule: CN[C@H](CC(C)C)C(=O)N[C@H]1C(=O)N[C@@H](CC(N)=O)C(=O)N[C@H]2C(=O)N[C@H]3C(=O)N[C@H](C(=O)N[C@H](C(=O)O)c4cc(O)cc(O)c4-c4cc3ccc4O)[C@H](O)c3ccc(c(Cl)c3)Oc3cc2cc(c3O[C@@H]2O[C@H](CO)[C@@H](O)[C@H](O)[C@H]2O[C@H]2C[C@](C)(N)[C@H](O)[C@H](C)O2)Oc2ccc(cc2Cl)[C@H]1O [vancomycin]
- effect on CTX-induced Th17 conversion ([3]; antibiotic in drinking water): reduced
- intratumoral CD8+ T effector/Foxp3+ regulatory T cell ratio ([7]; Chemo+Vanco): reduced
- effect on the anticancer efficacy of CTX-based chemotherapy ([7]; vancomycin 0.25 mg/ml in drinking water, oxaliplatin plus CTX): inhibitory role; also recorded: compromised
- effect on CTX-induced accumulation/differentiation of pTh17 in the spleen ([1]; MCA205 tumor bearers, 7 days after CTX): prevented; also recorded: blunts
- effect on long term protection of an OVA-based cancer vaccine + CTX against lethal challenge [8]: did not prevent
- frequencies of tumor-infiltrating CD3+ T cells and Th1 cells ([9]; MCA205 tumors, 8 days post-CTX): reduced
- γδT17 cells in tumor beds post-therapy ([9]; chemotherapy-treated tumors): devoid
- repertoire of commensal bacteria in feces [10]: biased the repertoire of commensal bacteria towards distinct commensal species
- effect on the anti-tumor efficacy of CTX against MCA205 sarcoma ([5]; 3 week conditioning with antibiotic): compromised; also recorded: reduced

Molecule: colistin
- effect on long term protection of an OVA-based cancer vaccine + CTX against lethal challenge [8]: did
- repertoire of commensal bacteria in feces [10]: promoted the outgrowth of E. faecalis
